In patent US7988958B2, “Enterococcus and Streptococcus strains and bacteriocins” (The United States of America as represented by the …, priority 2005, dated 2011):

Experiments:
Experiment in all cases: MIC of purified bacteriocins and antibiotic by Spot Test
Format in all cases: cell-based
[1] = tested on: Staphylococcus epidermidis; details: S. epidermidis; 24 hours at 37° C., aerobic
Protocol: (§1) The minimal inhibiting concentrations (MICs) of bacteriocins 760 and 50-52 and Methicillin were determined by Spot Test. Various concentrations of purified bacteriocins (μg/ml) in a volume of 10 μl was added to cultures of Staphylococcus aureus, Staphylococcus epidermidis, Pseudomonas aeruginosa, and Helicobacter pylori. The cultures were incubated for about 24 hours at about 37° C. under aerobic conditions for all but Helicobacter pylori which was incubated under microaerobic conditions.

[2] = tested on: Staphylococcus aureus; details: S. aureus; 24 hours at 37° C., aerobic
Protocol: as §1

[3] = tested on: Pseudomonas aeruginosa; details: P. aeruginosa; 24 hours at 37° C., aerobic
Protocol: as §1

[4] = tested on: Helicobacter pylori; details: H. pylori; 24 hours at 37° C., microaerobic
Protocol: as §1

Compound: COc1cccc(OC)c1C(=O)N[C@@H]1C(=O)N2[C@@H]1SC(C)(C)[C@@H]2C(=O)O [Methicillin, reference compound]
- MIC of purified Bacteriocins and Antibiotic [1]: 64.8 µg/mL
- MIC of purified Bacteriocins and Antibiotic [2]: 52.5 µg/mL
- MIC of purified Bacteriocins and Antibiotic [3]: 78.4 µg/mL
- MIC of purified Bacteriocins and Antibiotic [4]: 93.8 µg/mL
